We go through three compounds from patent US20230135127A1, “COMPOSITIONS AND METHODS FOR DISEASE TREATMENT AND PREVENTION BY PH MODIFIERS AND/OR CELL PROLIFERATION INHIBITORS” (priority 2021, published 2023).

Counter-ions that a name gives are not always drawn. Like-named read-outs stand apart in the source and are kept apart here.

In series [1] the test system is C57BL/6 mice immunized with MOG35-55 (EAE).
Series [2] deals with lymphocytes, eosinophils, macrophages in BALF; neutrophils in blood. On the procedure:
(§1) Cells were washed 3 times with PBS then stained with Zombie viability dyes at room temperature for 20 minutes. At the end of incubation, 10% volume of FBS was added to absorb excess Zombie dyes. After washes, the cells were stained with conjugated antibodies against surface antigens on ice. As specified in some experiments, the cells were subsequently stained with fluorochrome-conjugated Avidin. For Annexin V staining, cells were washed twice with plain PBS and once with Annexin V binging buffer (10 mM HEPES, pH7.4, 140 mM NaCl, 2.5 mM CaCl2)) after surface antigen staining, and incubated with fluorochrome-conjugated Annexin V in Annexin V binding buffer for 15 min at room temperature. The cells were washed twice in Annexin V binding buffer and resuspended in Annexin V binding buffer. 7-AAD was added to the cells before analyzed by flow cytometry. For Ki-67 and Foxp3 staining, lymphocytes (after Zombie dye and surface antigen staining) or tumor cells (without surface antigen staining) were fixed and permeabilized using Foxp3 staining buffer kit, then stained with PE-conjugated anti-mouse or human Ki-67 antibodies. (Biolegend, San Diego, Calif., USA). Stained and unstained cells were analyzed on Accuri C6 Flow Cytomer (Accuri Cytometers, Inc., Ann Arbor, Mich.), FACS Canto (BD Bioscience, San Jose, Calif., USA) and Attune™ cytometer (Invitrogen, Carlsbad, Calif.). Data analyses were carried out using FlowJo X.

Series [3] deals with white bone marrow (WBM) cells. The settings on record: for Ki-67hi cells in bone marrow B lineage (CD19+) cells: i.p. x3, 1 day after third treatment, saline 5.59%; for Ki-67hi cells in non-B lineage cells of non-granulocyte WBM cells: i.p. x3, saline 11.5%. On the procedure:
(§2) For all examples, treatments of the mice were carried out either by i.t. (intra-tracheal) instillation or i.p. injection. For i.t. instillation, 60 μl of treatment solution of saline or saline plus 175 mM HCl or HOAc was instilled into the trachea of a mouse using a pipet tip. For i.p. injection, 200 μl of saline or saline plus 87.5 mM HCl, HOAc or NaOH was injected into the peritoneal cavity of a mouse using a 26 or 27G needle. At the time of the first treatment the body weights of the mice ranged about 19 to 30 g.
as §1
Like lymph nodes, bone marrow is one of the most common sites for tumor metastasis. (106). In addition, primary tumors or tumor-like lesions can also occur in the bone. (107). […] In this example, C57BL/6 mice were treated with i.p. injection of saline, or saline plus HCl or HOAc every other day for 3 times. Bone marrow cells were extracted from both tibias 1 day after the third treatment for the study of B lineage cells, and for the studies of other cell types 3 days after the third i.p. treatment with saline or saline plus HOAc, and alternatively, mice received one i.t. injection of saline or saline plus HOAc, bone marrow was extracted from tibias the next day.

Series [4] deals with lesions of allergic contact dermatitis.
The subject of series [5] is Raji cells. In words: In vitro treatment of Raji tumor cells in FBS. On the procedure: Jurkat and Raji tumor cell lines were maintained in Complete RPMI-1640 Medium (RPMI-1640 plus 1× GlutaMAX, 100 U/ml Pen-Strep (Gibco Life Technologies, Grand Island, N.Y., USA), and 5% heat-inactivated fetal bovine serum (FBS) (Atlanta Biologicals, Flowery Branch, Ga., USA)) at 37° C. and 5% CO2. The tumor cells were washed 3 times with saline plus 1% FBS before in vitro treatments with saline or saline plus pH modifiers.
For studies of the effects of pH modifier on proliferating cells, primary thymocytes or lymph node cells (4×10^6 cells/ml) were incubated in FBS comprising 10% of saline or 87.5 mM HCl, HOAc or NaOH prepared in saline in 37° C. water bath for 5 hours before analyses. The tumor cells (2×10^6 cells/ml) were incubated in FBS comprising 10% saline or 87.5 mM HCl, HOAc, or NaOH prepared in saline in 37° C. water bath for 3-5 hours.
Cells were washed 3 times with PBS then stained with Zombie viability dyes at room temperature for 20 minutes. At the end of incubation, 10% volume of FBS was added to absorb excess Zombie dyes. […] 7-AAD was added to the cells before analyzed by flow cytometry. […] Stained and unstained cells were analyzed on Accuri C6 Flow Cytomer (Accuri Cytometers, Inc., Ann Arbor, Mich.), FACS Canto (BD Bioscience, San Jose, Calif., USA) and Attune™ cytometer (Invitrogen, Carlsbad, Calif.). […]

For series [6], the system named is granulocytes and lymphocytes in the blood. Conditions: RBC-depleted blood.
For series [7], the system named is mice.
Series [8] relates to white bone marrow (WBM) cells. On the procedure:
as §2, §1
To provide an example of this aspect of the present invention, C57BL/6 mice received i.p. treatments with saline or saline plus NaOH every other day for a total of 3 doses. Bone marrows were extracted from both tibias on day 1 or 3 after the final treatment.

The mark [9] stands for this setting: about 5.25M in water, topical 4 times a day, day 1.

On to `CC(=O)O` [HOAc, acetic acid], for which the “rate of disease onset (mice with EAE)” value in series [1] (day 2 after initiation of i.p. treatment, saline 50%) is given as 30%. For the same compound, the “maximum rate of disease onset” value in series [1] (reached 5 days after initiation, saline 80% on day 3) is on record as 60%. For the same compound, the “apoptotic (Annexin V+7-AAD+) macrophages in BALF” value in series [2] (i.t. after 3rd challenge, saline 0.71%) is on record as 56.4%. In addition, the “apoptotic (Annexin V+7-AAD+) eosinophils in BALF” value in series [2] (i.t. after 3rd challenge, saline 2.87%) was 95.2%. In series [2] (i.t. after 3rd challenge, saline 3.15%), the “apoptotic (Annexin V+7-AAD+) lymphocytes in BALF” value was 85.3%. Also, the “apoptotic neutrophils (Ly6G high) in blood” value in series [2] (saline 7.61%) is 38.4%. Further, the “Ki-67hi cells in bone marrow T (CD3+) cells” value in series [3] (i.p. treated, saline 4.21%) is on record as 2.46%; in series [3] (i.t. treated, one injection, saline 4.88%), 2.44%. For the same compound, the “Ki-67hi HSC” value is “no Ki-67^hi HSC were detected” in series [3] (i.p. treated, saline 11.1%) and “no Ki-67^hi HSC were detected” in series [3] (i.t. treated, saline 5.56%). The “Ki-67hi cells in erythroid (TER-119+) lineage cells” value in series [3] (i.p. treated, saline 72.3%) came out at 46.9%; in series [3] (i.t. treated, saline 67.3%) it was 33.3%. Besides, the “Ki-67hi cells in bone marrow B lineage (CD19+) cells” value in series [3] came out at 3.3%. Also, the “Ki-67hi cells in non-B lineage cells of non-granulocyte WBM cells” value in series [3] is 5.11%. Further, the “rash in lesion 2” value in series [4] (setting [9]) is “almost completely disappeared”. Moreover, in series [4] (setting [9]), the “rashes in lesion 1” value was “partially disappeared”. Further, the “rashes in both lesions” value in series [4] (by day 2 and day 3, treated day 0 and day 1) is listed as “completely disappeared”. In series [5] (human, 8.75 mM), the “viability (live cells) of Raji cells” value is listed as 48.9%. Moreover, the “percentage of lymphocytes in blood” value in series [6] (saline 22.9%) came out at 13.6%. Moreover, in series [6] (saline 32.6%), the “percentage of granulocytes in blood” value is reported as 1.1%.
On to `[Na+].[OH-]` [NaOH, sodium hydroxide], for which the “tolerance of i.t. instillation” value in series [7] was “poorly tolerant”. The “Ki-67hi cells in B lineage cells” value in series [8] (day 1, saline 4.85%) is 24.8%. Also, in series [8] (day 1, saline 11.2%), the “Ki-67hi cells in non-B lineage cells” value was 35.3%. For the same compound, the “Ki-67lo cells in B lineage cells” value in series [8] (day 1, saline 34.7%) came out at 61.6%. Besides, the “Ki-67hi MPP” value in series [8] (day 3, saline 0%) is 2.54%. Besides, the “percentage of T (CD3+) cells in WBM cells” value in series [8] (day 3, saline 0.69%) was found to be 0.87%. Also, the “Sca-1+ c-kit+ stem cells in Lin- WBM cells” value in series [8] (day 3, saline 0.81%) was found to be 1.74%. Moreover, the “Ki-67hi cells in T cells” value in series [8] (day 3, saline 2.86%) turned out to be 11.6%. In addition, the “Ki-67hi HSC” value in series [8] (day 3, saline 6.67%) stood at 15.6%. The “Ki-67neg TER-119+ cells” value in series [8] (day 3, saline 7.11%) turned out to be 6.72%. Besides, in series [8] (day 3, saline 14.6%), the “percentage of TER-119+ cells in lymphoid and myeloid negative WBM cells” value is 17.5%. Further, the “percentage of CD11c+ TCR- cells in WBM cells” value in series [8] (day 3, saline 18.4%) is on record as 64%. In addition, the “Ki-67lo cells in T cells” value in series [8] (day 3, saline 20%) was 28.7%. Besides, the “Ki-67lo MPP” value in series [8] (day 3, saline 21.9%) is 30.7%. In addition, in series [8] (day 3, saline 25.3%), the “Ki-67lo TER-119+ cells” value worked out at 16%. For the same compound, in series [8] (day 3, saline 33.7%), the “Ki-67+ cells within the Ly6G+ population” value was found to be 43.6%. In addition, the “Ki-67+ cells in CD11c+ TCR- cells” value in series [8] (day 3, saline 39.5%) is on record as 70.1%. Besides, the “percentage of Ly6G+ cells in WBM cells” value in series [8] (day 3, saline 42.4%) worked out at 57.7%. In series [8] (day 3, saline 67%), the “Ki-67hi TER-119+ cells” value is given as 76.2%. The “increase of average total number of WBM cells vs saline” value in series [8] (i.p. x3, both tibias) was 88%. Besides, the “percentage of CD19+ B lineage cells in non-granulocyte WBM cells” value in series [8] (one day after three i.p. treatments, saline about 11%) is recorded as 17%. Moreover, the “average percentage of WBM cells in total bone marrow cells” value in series [8] (saline less than 14%) was “over 29%”.
For the compound `Cl` [HCl, hydrochloric acid], in series [3], the “Ki-67hi cells in bone marrow B lineage (CD19+) cells” value is on record as 2.83% and the “Ki-67hi cells in non-B lineage cells of non-granulocyte WBM cells” value is on record as 6.34%. Besides, the “viability (live cells) of Raji cells” value in series [5] (FBS with 10% of 87.5 mM modifier, 37° C., 3-5 hours, saline 89.4%) was found to be 49.2%.
